Data on 14 molecules can be found in US20240376113A1 (Volastra Therapeutics, Inc., priority 2020, published 2024).

Assay [1] has as its target ENPP1 on MDA-MB-231 cells (Homo sapiens (Human), UniProt P22413). As to the kind of experiment: Inhibition of ENPP1 hydrolysis of AMP p-nitrophenyl ester on MDA-MB-231 cells (Assay 2). Particulars: pNP-AMP 0.25 mM, MDA-MB-231 cells, 37° C. 3 h, KI,app from IC50 via Cheng/Prusoff. The assay is classed as cell-based. The method, then: Inhibition of ENPP1 Hydrolysis of AMP p-Nitrophenyl Ester on MDA-MB-231 Cells (Assay 2)
ENPP1 is normally expressed on the human metastatic breast cancer cell line MDA-MB-231. Hydrolysis of the p-nitrophenyl ester of AMP (pNP-AMP), an isostere of ATP, is selectively catalyzed by ENPP1 in the supernatant of MDA-MB-231 cell cultures. Inhibition of the hydrolysis of pNP-AMP by MDA-MB-231 at pH 7.4 and 37° C. is a good model of physiologically relevant activity of membrane-bound ENPP1 at disease-relevant expression levels.
MDA-MB-231 cells were harvested using TypLE Express Enzyme digestion and suspended in 100 μL of Leibovitz's L-15 Medium, 20% FBS, seeding the cells in a 96-well assay plate with 4.5×10^4 cells/well. Cells were incubated at 37 C with 1% CO2 for 24 h. In a separate dilution plate, 2× of top dose of compound was prepared in phenol-red free 1640 medium without FBS and then 1:3 serial diluted in the same medium. The cell culture medium of L15 medium was aspirated carefully and cells were washed with PBS once, and 50 μL per well of test compound or DMSO blank are added to the assay plate. Substrate mix (50 μL; 0.5 mM pNP-AMP in phenol-red free 1640 media without FBS) was added for a pNP-AMP final concentration of 0.25 mM. The system was incubated at 37° C. for 3 h.

The target in a further assay is ENPP-1 ECD (Homo sapiens (Human), UniProt P22413). As to the kind of experiment: Inhibition of ENPP1 hydrolysis of 2′,3′-cGAMP (Assay 1). Particulars: AMP-Glo luminescence, KI from IC50 via Cheng/Prusoff.
Where [2] appears, read: read-out: Assay 2 KI,app values (class).
[3] abbreviates: Assay 1 KI values (class), 2,3-cGAMP 24 μM.
Where [4] appears, read: read-out: Assay 1 KI values (class), 2,3-cGAMP 24 μM.
Setting [5] is: read-out: Assay 1 KI, 2,3-cGAMP 24 μM.

Where two headings read alike, the source gives them in different places. Bounds are passed on as bounds.

Sequence of ENPP-1 ECD (P22413 98-925): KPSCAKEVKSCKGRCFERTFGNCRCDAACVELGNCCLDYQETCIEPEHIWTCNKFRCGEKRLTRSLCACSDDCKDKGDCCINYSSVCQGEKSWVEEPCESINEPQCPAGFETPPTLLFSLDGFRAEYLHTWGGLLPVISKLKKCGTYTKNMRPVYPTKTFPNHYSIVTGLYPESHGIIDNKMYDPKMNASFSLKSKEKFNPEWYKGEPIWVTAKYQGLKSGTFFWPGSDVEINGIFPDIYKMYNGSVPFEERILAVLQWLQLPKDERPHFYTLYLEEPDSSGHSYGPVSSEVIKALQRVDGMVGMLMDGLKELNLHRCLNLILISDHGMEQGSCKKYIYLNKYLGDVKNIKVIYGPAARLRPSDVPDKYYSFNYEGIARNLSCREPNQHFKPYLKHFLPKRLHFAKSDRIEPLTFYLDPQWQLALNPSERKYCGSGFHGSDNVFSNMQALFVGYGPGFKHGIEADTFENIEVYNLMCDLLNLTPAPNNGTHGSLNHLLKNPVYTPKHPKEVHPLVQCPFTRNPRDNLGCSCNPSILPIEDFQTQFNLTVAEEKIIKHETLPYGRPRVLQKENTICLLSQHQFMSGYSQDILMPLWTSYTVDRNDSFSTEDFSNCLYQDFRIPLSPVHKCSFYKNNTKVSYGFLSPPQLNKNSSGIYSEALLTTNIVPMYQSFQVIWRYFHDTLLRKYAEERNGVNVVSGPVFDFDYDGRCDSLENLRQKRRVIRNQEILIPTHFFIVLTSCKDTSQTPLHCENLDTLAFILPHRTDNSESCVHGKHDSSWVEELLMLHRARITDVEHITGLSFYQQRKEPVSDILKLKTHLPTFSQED
Sequence of ENPP1 on MDA-MB-231 cells (P22413 whole entry): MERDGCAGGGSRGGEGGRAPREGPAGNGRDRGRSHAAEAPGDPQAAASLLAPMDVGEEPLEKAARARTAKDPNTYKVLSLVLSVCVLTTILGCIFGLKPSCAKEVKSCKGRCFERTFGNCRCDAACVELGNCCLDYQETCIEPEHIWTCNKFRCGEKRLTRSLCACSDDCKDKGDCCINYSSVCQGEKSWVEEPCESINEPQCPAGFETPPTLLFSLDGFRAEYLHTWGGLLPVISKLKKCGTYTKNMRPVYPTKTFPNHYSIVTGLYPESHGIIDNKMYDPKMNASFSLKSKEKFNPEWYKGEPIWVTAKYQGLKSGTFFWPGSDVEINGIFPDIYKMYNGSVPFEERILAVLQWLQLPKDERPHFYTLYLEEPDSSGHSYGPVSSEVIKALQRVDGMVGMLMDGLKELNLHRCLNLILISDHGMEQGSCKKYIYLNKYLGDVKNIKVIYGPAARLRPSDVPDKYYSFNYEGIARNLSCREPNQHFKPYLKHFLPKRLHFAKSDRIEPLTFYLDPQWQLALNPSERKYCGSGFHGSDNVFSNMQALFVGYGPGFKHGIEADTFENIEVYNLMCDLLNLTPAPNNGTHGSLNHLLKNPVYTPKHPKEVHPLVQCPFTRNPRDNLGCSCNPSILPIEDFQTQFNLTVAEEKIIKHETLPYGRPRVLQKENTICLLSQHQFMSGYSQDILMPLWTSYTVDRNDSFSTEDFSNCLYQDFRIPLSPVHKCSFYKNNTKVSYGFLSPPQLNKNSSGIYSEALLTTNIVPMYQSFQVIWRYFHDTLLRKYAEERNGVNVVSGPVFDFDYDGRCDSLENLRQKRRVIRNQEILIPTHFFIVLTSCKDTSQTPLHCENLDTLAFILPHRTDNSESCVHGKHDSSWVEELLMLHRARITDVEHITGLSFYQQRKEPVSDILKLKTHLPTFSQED
Experimental for ENPP-1 ECD: Test compounds were plated in a 3× dilution scheme in a 384 well plate.

For the molecule `Cc1nc2ncnn2c(N(C)C)c1Cc1ccc(S(=N)(=O)CCN)cc1` (stereo not drawn) [Compound 73, (2-aminoethyl)(4-{[7-(dimethylamino)-5-methyl-[1,2,4]triazolo[1,5-a]pyrimidin-6-yl]methyl}phenyl)imino-λ^6-sulfanone], the Ki is 7.7 nM in assay [1] (read-out: Assay 2 KI, app); below 10 nM in assay [1] (setting [2]); below 3 nM on ENPP-1 ECD (setting [3]).

In the case of `CN(C)c1c(Cc2ccc(S(C)(=N)=O)cc2)c(Cl)nc2ncnn12` (stereo not drawn) [Compound 74, (4-{[5-chloro-7-(dimethylamino)-[1,2,4]triazolo[1,5-a]pyrimidin-6-yl]methyl}phenyl)(imino)methyl-λ^6-sulfanone], the Ki is 7.13 nM in assay [1] (read-out: Assay 2 KI, app); below 10 nM in assay [1] (setting [2]); below 3 nM on ENPP-1 ECD (setting [3]).

For `CN(C)c1c(Cc2ccc([S@@](C)(=N)=O)cc2)c(Cl)nc2ncnn12` [Compound 74a], the Ki was 1.34 nM in assay [1] (read-out: Assay 2 KI, app); below 10 nM in assay [1] (setting [2]); below 3 nM at ENPP-1 ECD (setting [4]); 0.0523 nM on ENPP-1 ECD (setting [5]).

With `Cc1cc2ncnn2c(N2CCCC2)c1Cc1ccc(S(C)(=N)=O)cc1` (stereo not drawn) [Compound 75, imino(methyl)(4-{[7-methyl-5-(pyrrolidin-1-yl)-[1,2,4]triazolo[1,5-a]pyridin-6-yl]methyl}phenyl)-λ^6-sulfanone], the Ki was 36.7 nM in assay [1] (read-out: Assay 2 KI, app); above 10 nM in assay [1] (setting [2]); below 3 nM on ENPP-1 ECD (setting [3]).

Regarding `Cc1cc2ncnn2c(N2CCCCC2)c1Cc1ccc(S(C)(=N)=O)cc1` (stereo not drawn) [Compound 76, imino(methyl)(4-{[7-methyl-5-(piperidin-1-yl)-[1,2,4]triazolo[1,5-a]pyridin-6-yl]methyl}phenyl)-λ^6-sulfanone], the Ki was 38.6 nM in assay [1] (read-out: Assay 2 KI, app); above 10 nM in assay [1] (setting [2]); below 3 nM at ENPP-1 ECD (setting [3]).

Regarding `CS(=N)(=O)c1ccc(Cc2c(Cl)nc3ncnn3c2N2CCCC2)cc1` (stereo not drawn) [Compound 78, (4-{[5-chloro-7-(pyrrolidin-1-yl)-[1,2,4]triazolo[1,5-a]pyrimidin-6-yl]methyl}phenyl)(imino)methyl-λ^6-sulfanone], the Ki is 24.1 nM in assay [1] (read-out: Assay 2 KI, app); above 10 nM in assay [1] (setting [2]); below 3 nM at ENPP-1 ECD (setting [3]).

Consider `CN(C)c1c(Cc2ccc(S(C)(=N)=O)cc2)c(C#N)nc2ncnn12` (stereo not drawn) [Compound 79, 7-(dimethylamino)-6-({4-[imino(methyl)oxo-λ^6-sulfanyl]phenyl}methyl)-[1,2,4]triazolo[1,5-a]pyrimidine-5-carbonitrile], for which the Ki in assay [1] (read-out: Assay 2 KI, app) is 74.4 nM; in assay [1] (setting [2]), above 10 nM; on ENPP-1 ECD (setting [3]), below 3 nM; on ENPP-1 ECD (setting [5]), 2.86 nM.

On to `Cc1c(Cc2ccc(S(C)(=N)=O)cc2)c(N(C)C)n2ccnc2c1C#N` (stereo not drawn) [Compound 80, 5-(dimethylamino)-6-({4-[imino(methyl)oxo-λ^6-sulfanyl]phenyl}methyl)-7-methylimidazo[1,2-a]pyridine-8-carbonitrile], for which the Ki in assay [1] (read-out: Assay 2 KI, app) was 2.54 nM; in assay [1] (setting [2]) it was below 10 nM; at ENPP-1 ECD (setting [3]), below 3 nM; at ENPP-1 ECD (setting [5]), 0.0443 nM.

As for `Cc1c(Cc2ccc([S@@](C)(=N)=O)cc2)c(N(C)C)n2ccnc2c1C#N` [Compound 80a], the Ki in assay [1] (read-out: Assay 2 KI, app) is 0.589 nM; in assay [1] (setting [2]) it was below 10 nM; at ENPP-1 ECD (setting [4]) it was below 3 nM; at ENPP-1 ECD (setting [5]), 0.016 nM.

With `Cc1nc2ncnn2c(N2CCCC2)c1Cc1ccc(B(O)O)cc1` [Compound 81, (4-{[5-methyl-7-(pyrrolidin-1-yl)-[1,2,4]triazolo[1,5-a]pyrimidin-6-yl]methyl}phenyl)boronic acid], the Ki was 13.5 nM in assay [1] (read-out: Assay 2 KI, app); above 10 nM in assay [1] (setting [2]); below 3 nM on ENPP-1 ECD (setting [3]); 0.817 nM on ENPP-1 ECD (setting [5]).

Turning to `Cc1nc2ncnn2c(N2CCCC2)c1Cc1ccc(C(=O)NO)cc1` [Compound 82, N-hydroxy-4-{[5-methyl-7-(pyrrolidin-1-yl)-[1,2,4]triazolo[1,5-a]pyrimidin-6-yl]methyl}benzamide], the Ki in assay [1] (read-out: Assay 2 KI, app) is 69.9 nM; in assay [1] (setting [2]), above 10 nM; on ENPP-1 ECD (setting [3]) it was below 3 nM; on ENPP-1 ECD (setting [5]), 1.16 nM.

Take `Cc1c(Cc2ccc(S(C)(=N)=O)cc2)c(N(C)C)n2ncnc2c1C#N` (stereo not drawn) [Compound 85, 5-(dimethylamino)-6-({4-[imino(methyl)oxo-λ^6-sulfanyl]phenyl}methyl)-7-methyl-[1,2,4]triazolo[1,5-a]pyridine-8-carbonitrile]: the Ki turned out to be 0.724 nM in assay [1] (read-out: Assay 2 KI, app) and 0.0287 nM at ENPP-1 ECD (setting [5]).

As to `Cc1cc2ncnn2c(N(C)C)c1Cc1ccc(S(=N)(=O)CCC(=O)O)cc1` (stereo not drawn) [Compound 87, 3-[(4-{[5-(dimethylamino)-7-methyl-[1,2,4]triazolo[1,5-a]pyridin-6-yl]methyl}phenyl)(imino)oxo-λ^6-sulfanyl]propanoic acid], the Ki in assay [1] (read-out: Assay 2 KI, app) came to 0.447 nM; at ENPP-1 ECD (setting [5]), 0.0184 nM.

Take `COc1nc2ncnn2c(N(C)C)c1Cc1ccc([S@@](C)(=N)=O)cc1` [Compound 88a]: the Ki in assay [1] (read-out: Assay 2 KI, app) stood at 0.222 nM; at ENPP-1 ECD (setting [5]), 0.00586 nM.
